Measured values taken from patent US7785581B2, “Composition and method for reducing feces toxins and treating digestive disorders” (Qingdao East Sea Pharmaceuticals Ltd., priority 2006, dated 2010).

What was measured:
Format in all cases: in vivo, human
IBS patients = experiment: Treatment of IBS with live Bifidobacterium tablets (Example 8)
patients with diarrhea [1] = experiment: Treatment of diarrhea associated with cold or raw food, or with common cold (Example 9); conditions: 14 to 21 days
patients with diarrhea [2] = experiment: Treatment of diarrhea associated with alcohol intake (Example 10); conditions: 14 to 21 days
[3] = 57 IBS patients, 14 to 21 days, cured plus effective
[4] = diarrhea after cold/raw food or common cold
[5] = diarrhea after drinking alcohol

Bifidobacterium
Cured % (IBS patients; 57 IBS patients, 14 to 21 days): 61% | Cured Case No. (IBS patients; 57 IBS patients, 14 to 21 days): 35 | Effective % (IBS patients; 57 IBS patients, 14 to 21 days): 28% | Effective Case No. (IBS patients; 57 IBS patients, 14 to 21 days): 16 | Improved % (IBS patients; 57 IBS patients, 14 to 21 days): 11% | Improved Case No. (IBS patients; 57 IBS patients, 14 to 21 days): 6 | Ineffective % (IBS patients; 57 IBS patients, 14 to 21 days): 0% | Ineffective Case No. (IBS patients; 57 IBS patients, 14 to 21 days): 0 | Effective Cases % (overall effective rate) (IBS patients; [3]): 89% | Effective Cases Case No. (IBS patients; [3]): 51 | other IBS symptoms, such as abdominal pain and discomfort (IBS patients; IBS patients): alleviated | symptoms of diarrhea or constipation (IBS patients; most of the IBS patients): ameliorated | effectiveness in treating diarrhea associated with eating cold or raw foods, or with common cold (patients with diarrhea [1]): highly effective | Cured (cases) (patients with diarrhea [1]; [4]): 23 | Effective (cases) (patients with diarrhea [1]; [4]): 14 | Improved (cases) (patients with diarrhea [1]; [4]): 5 | Ineffective (cases) (patients with diarrhea [1]; [4]): 0 | Efficacy (patients with diarrhea [1]; diarrhea after cold/raw food or common cold, cured plus effective): 88.10% | effectiveness in treating diarrhea associated with alcohol intake (patients with diarrhea [2]): highly effective | Cured (cases) (patients with diarrhea [2]; [5]): 21 | Effective (cases) (patients with diarrhea [2]; [5]): 13 | Improved (cases) (patients with diarrhea [2]; [5]): 4 | Ineffective (cases) (patients with diarrhea [2]; [5]): 0 | Efficacy (patients with diarrhea [2]; diarrhea after drinking alcohol, cured plus effective): 89.5%
